Legend:
Keap1/Nrf2 [1] = molecular target: T1, Keap1/Nrf2 (Homo sapiens, UniProt Q14145); assay: Inhibition of Keap1-Nrf2 protein-protein interaction (unknown origin) by fluorescence polarization assay
Keap1/Nrf2 [2] = molecular target: T1, Keap1/Nrf2; assay: (§1) Inhibition of Keap1-Nrf2 protein-protein interaction (unknown origin) assessed as inhibition constant by TR-FRET assay
Keap1/Nrf2 [3] = molecular target: T1, Keap1/Nrf2; assay: Inhibition of Keap1-Nrf2 protein-protein interaction (unknown origin) assessed as inhibition constant by fluorescence polarization assay
Keap1/Nrf2 [4] = molecular target: T2, Keap1/Nrf2 (Homo sapiens, UniProt Q16236+Q14145); assay: Inhibition of Keap1-Nrf2 protein-protein interaction in human NCM460D cells assessed as fold induction at 1 to 100 uM in NQO1 mRNA level incubated for 24 hrs by RT-qPCR analysis; assay type: cell-based; details: dose 1-100 µM
Target sequence in this assay (Q14145 whole entry, looked up): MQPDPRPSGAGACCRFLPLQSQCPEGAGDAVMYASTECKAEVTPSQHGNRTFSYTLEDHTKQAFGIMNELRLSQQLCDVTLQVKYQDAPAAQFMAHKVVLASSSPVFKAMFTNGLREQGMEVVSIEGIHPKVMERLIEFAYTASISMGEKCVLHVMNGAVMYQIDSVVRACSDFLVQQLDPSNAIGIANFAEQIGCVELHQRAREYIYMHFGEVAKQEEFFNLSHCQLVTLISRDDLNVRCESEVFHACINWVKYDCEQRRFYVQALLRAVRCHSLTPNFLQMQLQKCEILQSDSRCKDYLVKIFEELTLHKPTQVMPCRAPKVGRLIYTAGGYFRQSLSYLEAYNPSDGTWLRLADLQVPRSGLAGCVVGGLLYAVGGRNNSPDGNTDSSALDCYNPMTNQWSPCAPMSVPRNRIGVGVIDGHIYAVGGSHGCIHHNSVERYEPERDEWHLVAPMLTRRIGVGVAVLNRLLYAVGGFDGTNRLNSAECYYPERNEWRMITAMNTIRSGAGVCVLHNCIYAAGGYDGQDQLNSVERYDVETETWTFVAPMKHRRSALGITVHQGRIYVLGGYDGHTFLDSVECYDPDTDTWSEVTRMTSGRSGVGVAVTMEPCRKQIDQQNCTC
Target sequence in this assay (Q16236 whole entry, looked up): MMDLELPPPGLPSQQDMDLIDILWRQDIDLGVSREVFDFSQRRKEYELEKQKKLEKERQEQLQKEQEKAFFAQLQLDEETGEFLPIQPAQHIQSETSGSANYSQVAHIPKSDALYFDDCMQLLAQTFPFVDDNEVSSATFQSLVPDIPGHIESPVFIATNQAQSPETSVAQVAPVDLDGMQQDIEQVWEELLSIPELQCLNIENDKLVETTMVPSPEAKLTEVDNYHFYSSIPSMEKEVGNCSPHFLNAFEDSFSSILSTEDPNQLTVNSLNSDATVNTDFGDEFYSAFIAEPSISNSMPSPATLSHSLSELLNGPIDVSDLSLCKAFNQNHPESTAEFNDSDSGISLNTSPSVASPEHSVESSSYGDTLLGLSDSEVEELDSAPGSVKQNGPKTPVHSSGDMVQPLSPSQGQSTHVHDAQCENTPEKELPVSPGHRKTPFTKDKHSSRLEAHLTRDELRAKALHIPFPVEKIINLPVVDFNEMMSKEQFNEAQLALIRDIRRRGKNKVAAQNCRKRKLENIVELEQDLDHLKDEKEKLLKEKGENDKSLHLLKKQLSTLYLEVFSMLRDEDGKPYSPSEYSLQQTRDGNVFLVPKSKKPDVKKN

Keap1/Nrf2 [5] = molecular target: T2, Keap1/Nrf2; assay: as §1
Target sequence in this assay (Q16236 whole entry): as the sequence (Q16236 whole entry, looked up) above
Target sequence in this assay (Q14145 whole entry): as the sequence (Q14145 whole entry, looked up) above

Keap1/Nrf2 [6] = molecular target: T1, Keap1/Nrf2; assay: Inhibition of Keap1-Nrf2 protein-protein interaction (unknown origin) by TR-FRET assay

T1 sequence (Q16236 whole entry): as the sequence (Q16236 whole entry, looked up) above
T1 sequence (Q14145 whole entry): as the sequence (Q14145 whole entry, looked up) above

Row | IC50 (Keap1/Nrf2 [1]) [µM] | Ki (Keap1/Nrf2 [2]) [µM] | Ki (Keap1/Nrf2 [3]) [µM] | SMILES | further results
1 | 1.61 | 0.316 |  | COc1ccc(S(=O)(=O)N(CC(=O)O)c2ccc(N(CC(=O)O)S(=O)(=O)c3ccc(OC)cc3)c(C(=O)OCc3ccccc3)c2)cc1 | 
2 | 0.228 |  | 0.0306 | Cc1ccc(S(=O)(=O)N(CC(=O)O)c2ccc(N(CC(=O)O)S(=O)(=O)c3ccc(C)cc3)c(OCCN3C(=O)c4ccccc4C3=O)c2)cc1 | 
3 | 2.5 | 0.5 |  | COc1ccc(S(=O)(=O)N(CC(=O)O)c2ccc(N(CC(=O)O)S(=O)(=O)c3ccc(OC)cc3)c(OCCN3CCOCC3)c2)cc1 | 
4 |  | 0.0507 |  | COc1ccc(S(=O)(=O)N(CC(=O)O)c2ccc(N(CC(=O)O)S(=O)(=O)c3ccc(OC)cc3)c(OS(=O)(=O)c3c(C)cc(C)cc3C)c2)cc1 | 
5 |  |  |  | Cc1ccc(S(=O)(=O)N(CC(=O)O)c2cc(OCC(=O)O)c(N(CC(=O)O)S(=O)(=O)c3ccc(C)cc3)c3ccccc23)cc1 | FC (Keap1/Nrf2 [4]): 15
6 | 0.641 |  | 0.116 | Cc1ccc(S(=O)(=O)N(CC(=O)O)c2ccc(N(CC(=O)O)S(=O)(=O)c3ccc(C)cc3)c(OCC(=O)N3CCOCC3)c2)cc1 | 
7 | 0.76 | 0.141 |  | COc1ccc(S(=O)(=O)N(CC(=O)O)c2ccc(N(CC(=O)O)S(=O)(=O)c3ccc(OC)cc3)c(OCC(=O)N3CCC(c4ccccc4)CC3)c2)cc1 | 
8 | 0.408 |  | 0.068 | Cc1ccc(S(=O)(=O)N(CC(=O)O)c2ccc(N(CC(=O)O)S(=O)(=O)c3ccc(C)cc3)c(OCc3nnn[nH]3)c2)cc1 | 
9 | 2.26 | 0.452 |  | COc1ccc(S(=O)(=O)N(CC(=O)O)c2ccc(N(CC(=O)O)S(=O)(=O)c3ccc(OC)cc3)c(OCC(=O)N3CCN(C)CC3)c2)cc1 | 
10 | 1.78 | 0.351 |  | COc1ccc(S(=O)(=O)N(CC(=O)O)c2ccc(N(CC(=O)O)S(=O)(=O)c3ccc(OC)cc3)c(OC(=O)c3ccccc3)c2)cc1 | 
11 |  |  |  | Cc1ccc(S(=O)(=O)N(CC(=O)O)c2ccc(N(CC(=O)O)S(=O)(=O)c3ccc(C)cc3)c(O[C@H](C)C(=O)O)c2)cc1 | Ki (Keap1/Nrf2 [5]): 0.0414 µM
12 | 0.136 | 0.0322 | 0.0116 | Cc1ccc(S(=O)(=O)N(CC(=O)O)c2ccc(N(CC(=O)O)S(=O)(=O)c3ccc(C)cc3)c(O[C@@H](C)C(=O)O)c2)cc1 | IC50 (Keap1/Nrf2 [6]): 0.0722 µM
13 |  |  | 0.0763 | Cc1ccc(S(=O)(=O)N(CC(=O)O)c2ccc(N(CC(=O)O)S(=O)(=O)c3ccc(C)cc3)c(OCc3ccc(F)cc3)c2)cc1 | 
14 |  | 0.0783 |  | COc1ccc(S(=O)(=O)N(CC(=O)O)c2ccc(N(CC(=O)O)S(=O)(=O)c3ccc(OC)cc3)c(OS(=O)(=O)c3ccc(-c4ccccc4)cc3)c2)cc1 | 
15 | 0.0693 | 0.0091 | ~0.001 | Cc1ccc(S(=O)(=O)N(CC(=O)O)c2cc(CCC(=O)O)c(N(CC(=O)O)S(=O)(=O)c3ccc(C)cc3)c3ccccc23)cc1 | FC (Keap1/Nrf2 [4]): 8; IC50 (Keap1/Nrf2 [6]): 0.0223 µM
16 | 3.85 | 0.78 |  | COc1ccc(S(=O)(=O)N(CC(=O)O)c2ccc(N(CC(=O)O)S(=O)(=O)c3ccc(OC)cc3)c(C(=O)Oc3ccccc3)c2)cc1 | 
17 | 0.565 |  | 0.1 | Cc1ccc(S(=O)(=O)N(CC(=O)O)c2ccc(N(CC(=O)O)S(=O)(=O)c3ccc(C)cc3)c(CCC(=O)O)c2)cc1 | 
18 |  | 0.082 |  | COc1ccc(S(=O)(=O)N(CC(=O)O)c2ccc(N(CC(=O)O)S(=O)(=O)c3ccc(OC)cc3)c(OS(=O)(=O)Cc3ccccc3)c2)cc1 | 
19 | 0.407 |  | 0.0676 | Cc1ccc(S(=O)(=O)N(CC(=O)O)c2ccc(N(CC(=O)O)S(=O)(=O)c3ccc(C)cc3)c(OS(=O)(=O)c3c(C)cc(C)cc3C)c2)cc1 | 
20 | 0.593 | 0.106 |  | COc1ccc(S(=O)(=O)N(CC(=O)O)c2ccc(N(CC(=O)O)S(=O)(=O)c3ccc(OC)cc3)c(OCC(=O)c3ccccc3)c2)cc1 | 
21 | 0.399 | 0.0661 |  | COc1ccc(S(=O)(=O)N(CC(=O)O)c2ccc(N(CC(=O)O)S(=O)(=O)c3ccc(OC)cc3)c(OCC(=O)N3CCOCC3)c2)cc1 | 
22 | 1.78 |  | 0.351 | Cc1ccc(S(=O)(=O)N(CC(=O)O)c2ccc(N(CC(=O)O)S(=O)(=O)c3ccc(C)cc3)c(NCC(=O)O)c2)cc1 | 
23 | 7.68 | 1.57 |  | COc1ccc(S(=O)(=O)N(CC(=O)O)c2ccc(N(CC(=O)O)S(=O)(=O)c3ccc(OC)cc3)c(OCC(=O)Nc3ccccc3)c2)cc1 | 
24 | 0.439 | 0.0742 |  | COc1ccc(S(=O)(=O)N(CC(=O)O)c2ccc(N(CC(=O)O)S(=O)(=O)c3ccc(OC)cc3)c(OS(=O)(=O)c3ccccc3)c2)cc1 | 

Reference: ChEMBL document CHEMBL5528026, “Structural modification of C2-substituents on 1,4-bis(arylsulfonamido)benzene or naphthalene-N,N'-diacetic acid derivatives as potent inhibitors of the Keap1-Nrf2 protein-protein interaction” (Eur J Med Chem, 2024)
